Patent US5736565A, “Therapeutic compounds suitable for the treatment of diseases connected with glutathione deficiency, process for their preparation, and pharmaceutical compositions containing same” (Prospa B.V., priority 1992, dated 1998)
“Also recorded” adds a separate entry of the source. Peptide text beside a SMILES is read from it.

How the values were obtained:
[1] = system: serum antibodies versus ram erythrocytes; assay: Immunization tests versus ram erythrocytes in rat immunodepressed by cyclophosphamide (CTX); type: in vivo, Sprague-Dawley rats; conditions: for serum antibodies level (agglutination, Days from immunization): 600 mg/kg i.p. + CTX
Procedure: (§1) Sprague-Dawley rats (Charles River, Calco (CO)), aged 10 weeks (young adults) and 24 months (old), were stabled under standard conditions (24°±1° C., 12 h light/dark cycle, free access to food and water). Handlings were made in such a way as to avoid stressful stimuli.
(§2) The animals were stabled in groups of 6 per cage and treated for 2 weeks (15 days) with a PSC daily dose of 600 mg/kg by intraperitoneal route (i.p.).
Immunization tests versus ram erythrocytes in Sprague-Dawley rat immunodepressed by cyclophosphamide (CTX)
0.3 Milliliters of ram erythrocytes (3%) in 0.9% sodium chloride solution were injected to Sprague-Dawley rats, both young (aged 10 weeks, weighing 150-200 g) and old (aged 24 months). A second injection was made on the 21st day after the first one. The rats were treated with PSC (600 mg/kg i.p.). Treatment started 3 days before immunization and continued until the 40th day of experiment. Cyclophosphamide (CTX) (150 mg/kg/die) was injected i.p. on the 3rd, 4th, and 5th day after immunization with erythrocytes.
The animals were subdivided (6 animals each group) into the following experimental groups:
1) Non-immunized controls (CTRL);
2) Immunized controls (CTRL);
4) Immunized +CTX+PSC (600 mg/kg i.p.).
The determination of serum antibodies levels was carried out by agglutination reaction: the serum in 0.9% sodium chloride solution was diluted from 1:2 to 1:1024 and ram erythrocytes at a concentration of 5×10^8 /ml were added. The determination of antibodies was carried out 2 hrs after incubation at 37° C. Each sample was assayed twice (Tables 11 and 12).

[2] = system: splenocytes; assay: Blastization with concavaline A (ConA) on splenocytes of PSC-treated young and old rats; type: in vivo, Sprague-Dawley rats
Procedure: as §1, §2
Once the treatment with PSC previously described in the paragraph "Animals" was completed, the animals were sacrificed by decapitation, spleens were excised under sterile conditions and broken up in a Petri dish. The splenocytes thus obtained by mechanical dispersion were placed in culture medium RPMI 1640 with addition of calf fetal serum (FBS) (10%).
The resulting cellular suspension was centrifuged at 2500 rpm for 20 min on Ficoll-Paque gradient. Stratified splenocytes were taken by a sterile Pasteur pipette and washed three times with sterile FBS. Cells were counted and placed onto 96-well plastic plates at a concentration of 1×10^5 /well in of volume of 0.1 ml. The cultures thus obtained were incubated for 48 hrs at 37° C., in a […] environment. Forty-eight hours later, concavaline A (ConcA) was added to the cultures at a concentration of 1 μg/ml in a volume of 0.1 ml. Eighteen hours later, tritiated thymidine was added (volume: 10 μl). Incorporation of tritiated thymidine was stopped after 3 hrs, by elimination of excess liquid by suction and by sucking the cells on fibreglass filters. Filters were placed in scintillation vials containing 5 ml of scintillating solution (Insta-Gel). Radioactivity (dpm) was measured during 2 min using a β-counter.
The results obtained on groups treated with ConA alone (controls), on groups treated with PSC (600 mg/kg), and on groups that had not been treated either with ConA or PSC are compared in Table 13.

[3] = system: interleukin-2 (IL-2); assay: Interleukin-2 (IL-2) production following interleukin-1 (IL-1) i.p. injection in young and old rats; type: in vivo, Sprague-Dawley rats; conditions: i.p. treated groups
Procedure: as §1, §2
With a view to evaluating a further aspect of the immunological activity in PSC-treated (600 mg/kg) animals, according to the aforementioned scheme, an investigation was carried out on interleukin-2 (IL-2) response to the injection of IL-1 that, as known, stimulates IL-2 production from lymphocytes.
Once the treatment was completed, each rat was administered IL-1 (0.1 mg/kg, i.p.). One hour after injection, the animals were killed by decapitation, the blood was collected and centrifuged, and the plasma maintained at -20° C. until IL-2 dosing.
The evaluation of IL-2 production was based on an immunological assay, utilizing a specific antibody produced in heterologous species against rat IL-2. Samples were assayed twice.
The controls are rats treated only with IL-1.

[4] = system: murine fibrosarcoma cells (WEHI 164 clone 13); assay: Transplantable neoplasms: murine fibrosarcoma tumoral mass growth in BALB/c mice; type: in vivo
Procedure: Male adult BALB/c mice weighing 20 g were stabled under standard conditions (24°±1° C., 12 h light/dark cycle, free access to food and water). Handlings were made in such a way as to avoid stressful stimuli.
All animals, subdivided into groups of 6, were treated 4 weeks with a PSC dose (600 mg/kg). After a 2 week treatment, the mice were inoculated intramuscularly (i.m.) with murine fibrosarcoma WEHI 164 clone 13 cells or Lewis lung carcinoma in an amount of 1×10^5 cells. Treatment was continued two weeks after tumour inoculation. The mice were sacrificed and the tumoral mass growth and the development of metastases, if any, were evaluated.

[5] = system: reactive oxygen species (ROS) production of human spermatozoa; assay: Effect of PSC on the spermatic production of free radicals (chemiluminescence with luminol); type: cell-based
Source text: Free radicals production was investigated under basal and maximal conditions (after A23187 addition) on controls and in the presence of PSC.
A23187 is an ionophore bivalent cation that, under physiological conditions, promotes acrosomial reaction. It is used being capable of stimulating the production of superoxide radicals (Aitken R. J. et al., Generation of reactive oxygen species, lipid peroxidation and human sperm function, J. of Reproduction, 40, 183-197, 1989).
Seminal fluid was obtained from 11 donors previously subjected to a complete medical check-up, to exclude the presence, if any, of sexual transmission diseases. Samples were obtained by masturbation and analysed within 1.5 hrs thereafter.
Spermatozoa were separated from seminal fluid by three centrifugation cycles (500×g for 5 min) and resuspended in medium BWW (Biggers et al., "The culture of mouse embryos in vitro", Daniel J. C. ed., Methods in mammalian embryology, 86-116, 1971) at a concentration of 20×10^6 /ml.
The production of reactive oxygen species (ROS) was evaluated by chemiluminescence with luminol: human spermatozoa suspensions at a concentration of […] in a volume of 500 μl were subjected to the action of luminol (LM 100 mmol/l in dimethyl sulphoxide).Said spermatic suspension was then diluted with 500 μl of medium BWW alone (control) or containing PSC (10 mM); other spermatic suspensions contained A23187 (0.05 mg/ml) alone (positive control) and, respectively, A23187 (0.05 mg/ml)+PSC (10 mM).
3 Minutes later, the chemiluminescent signal was recorded. Reactive oxygen species (ROS) production was expressed as photons brust (cpm) recorded by a luminometer Berthold L 9500.

For CC(=O)SC[C@H](NC(=O)[C@@H]1CCC(=O)N1)C(=O)O [PSC, 2-(S)-(2-pyrrolidone-5-(S)-carbonyl amido)-3-acetylmercapto propionic acid] (HELM PEPTIDE1{[Glp].C}|PEPTIDE2{[ac]}$PEPTIDE1,PEPTIDE2,2:R3-1:R2$$$V2.0), the “restoring immunological functionality (in words)” value ([1]; CTX-immunodepressed old rat) was “effective in restoring a correct immunological functionality”, the “antibodies levels (in words)” value ([1]; intraperitoneal, young and old rats) was “causes a considerable increase in antibodies levels both in young (Table 11) and old (Table 12) rats” and the “serum antibodies level (agglutination, Days from immunization)” value (shortened to “serum antibodies level”) ([1]; old rats, day 12) was 2. For the same molecule, the “serum antibodies level” value ([1]; old rats, day 20) was 8, the “serum antibodies level” value ([1]; old rats, day 29) was 32 and the “serum antibodies level” value ([1]; old rats, day 40) was 64. For the same molecule, the “serum antibodies level” value ([1]; young rats, day 12) was 2, the “serum antibodies level” value ([1]; young rats, day 20) was 4 and the “serum antibodies level” value ([1]; young rats, day 29) was 20. For the same molecule, the “serum antibodies level” value ([1]; young rats, day 40) was 20, the “splenocytes blastization induced by ConA (in words)” value ([2]; 600 mg/kg) was “showed a significant increase in splenocytes blastization induced by ConA” and the “blastization (tritiated thymidine incorporation), Young” value ([2]; 600 mg/kg i.p. 15 days + ConA) was 1488 ± 62 DPM × 100. The “blastization (tritiated thymidine incorporation), Old” value ([2]; 600 mg/kg i.p. 15 days + ConA, *P < 0.05) was 1250 ± 11 DPM × 100, the “IL-2 levels (in words)” value [3] was “significant increases were detected in the groups treated i.p. with PSC” and the “tumoural growth, fibrosarcoma (in words)” value ([4]; 600 mg/kg) was “prevented tumoural growth; also recorded: significantly slows down the growth of fibrosarcomatous tumours in the rat”. The “Tumoral mass diameter, 15th day” value ([4]; 600 mg/kg i.p., 30 days' treatment) was 0.6 ± 0.03 cm, the “free radicals production (in words)” value ([5]; basal and maximal conditions) was “caused a significant reduction in free radicals production” and the “ROS production, photons brust” value ([5]; medium + A23187 (0.05 mg/ml) + PSC (10 mM)) was 270.8 +/- 254 cpm. For the same molecule, the “ROS production, photons brust” value ([5]; medium + PSC (10 mM), basal) was 243.7 +/- 235.2 cpm.
